Laboratory results taken from patent US20050191612A1, “Method of screening insulin content enhancer” (priority 2002, published 2005).

Columns and labels:
[1] = system: GK (Goto-Kakizaki) rats (type II diabetes models); assay: Glucose tolerance test for GK (Goto-Kakizaki) rats by one oral dose; format: in vivo, rat; conditions: 100 mg/kg orally, at 30 and 60 minutes after glucose administration
Protocol: (§1) SD rats (4 weeks old; CLEA JAPAN) were made to fast overnight, and 2 g/kg of glucose was orally administered. Compound A (100 mg/kg) had been intraperitoneally administered 5 minutes before the glucose administration. An appropriate amount of blood was taken at 0 minute, 30 minutes, 60 minutes, and 120 minutes after the glucose administration, and used for the measurement of a blood glucose level and a concentration of plasma insulin.
(§2) For measuring the blood glucose level, a supernatant obtained by mixing blood and 0.33 mol/L perchloric acid (blood:0.33 mol/L perchloric acid=1:10) and centrifuging the mixture (3000×g, 10 minutes, 4° C.) was used. For measuring the concentration of plasma insulin, a supernatant obtained by centrifuging blood (3000×g, 10 minutes, 4° C.) was used. Further, Glucose C test Wako (Wako) was used in the measurement of the blood glucose level, and a rat insulin assay system (Amersham) was used in the measurement of the concentration of plasma insulin.
Then, a glucose tolerance test for GK (Goto-Kakizaki) rats (type II diabetes models with incomplete insulin secretion; 7 weeks old; Charles River Japan) by one oral dose was carried out. The GK rat line was established by selectively mating wistar rats in accordance with an index of a poor tolerance in an oral glucose tolerance test, by Yoshio Goto, et al., School of Medicine, Tohoku University, in 1975. […]

[2] = system: insulin promoter activity in mouse pancreatic β cell line NIT1 cells; assay: Insulin promoter reporter (plasmid InsPro) luciferase activity in NIT1 cells; format: cell-based; conditions: compound 30 μmol/L, treatment 31 hours, p<0.01
Protocol: A transfection reagent (LIPOFECTAMINE 2000; GIBCO BRL, or FuGENE6; Boeringer Mannheim) was used to introduce plasmid InsPro (1-10 ng) prepared in Example 2 to mouse pancreatic β cell line NIT1 cells (4×10^4 cells). The trasfected cells were seeded on a 96-well plate. A Dulbecco modified Eagles' medium (DMEM) or F-12 medium containing 10% fetal calf serum (FCS) was used as a medium. After the seeding, the cells were cultured for 18-20 hours. […] After the medium was aspirated, the cells were lysed with a cell lysing solution (cell lysis buffer LCβ; Toyo Ink Mfg.). A luciferase activity of each lysate was measured by a commercially available measuring kit (PicaGene Luminescent kit; Toyo Ink Mfg.) and a measuring apparatus (ML3000 microtiter plate luminometer; Dynatech Laboratories). […] Further, where the above procedure is repeated except for using a cell not expressing the polypeptide for a screening tool, as a control cell, instead of the cell for a screening tool, when the insulin promoter reporter activity is not increased in the control cell, it can be judged that such a test substance can activate the polypeptide consisting of the amino acid sequence of SEQ ID NO: 2.
Next, compounds A-E were evaluated in a manner similar to that described in Example 5. More particularly, a 96-well plate coated with collagen was used as the 96-well plate, and DMEM was used as the medium. […]

[3] = system: SD rats; assay: Glucose tolerance test for SD rats by one oral dose; format: in vivo, rat; conditions: 100 mg/kg intraperitoneally 5 min before 2 g/kg oral glucose, at 30 minutes, p<0.05
Protocol: as §1, §2
FIG. 4 illustrates a time course of the concentration of plasma insulin (unit=ng/mL) after the oral administration of glucose, and FIG. 5 illustrates a time course of the blood glucose level (unit=mg/dL) after the oral administration of glucose. The mark “*” in FIGS. 4 and 5 denotes that a significant difference from the group to which compound A had not been administered was p<0.05 (Student's t-test).

S=C(OCCc1ccncc1)c1ccccc1 [compound A, 2-(pyridine-4-yl)ethyl thiobenzoate]
increase of the blood glucose level by the glucose administration [1]: significantly suppressed | increased value of the reporter activity with respect to control group [2]: ≥ 1.5 times | concentration of plasma insulin after glucose administration [3]: significant increase | increase of the blood glucose level by the glucose administration [3]: significantly suppressed
